Source: patent US20240108598A1, “Danegaptide for Use in the Treatment or Prevention of a Kidney Disease” (CIANA THERAPEUTICS APS, priority 2021, published 2024)

Assays:
primary hPTECs = experiment: Inflammation antibody array, supernatant (Table 2); type: cell-based, human; conditions: hPTEC supernatant, 48 h
Description: An inflammation antibody array was used to assess regulation of 31 candidate inflammatory proteins in supernatant from hPTEC cells treated with TGFβ1±danegaptide. Results are representative of 3 separate experiments and presented as mean±SEM, n=3 with key significances indicated (*P<0.05, **P<0.01, ***P<0.001; one-way ANOVA and Tukey's post-test).
A proteome profiler array (Human Cytokine Array Kit from R&D Systems, Oxfordshire, UK) was used, to determine if danegaptide negates TGFβ1-induced changes in expression and secretion of key pro-inflammatory mediators. Primary hPTECs were cultured as described above and treated with TGFβ1 (10 ng/mL)±danegaptide (100 nM) for 48 h.

HK2 cells = experiment: Transepithelial electrical resistance (TER); type: cell-based, human; conditions: HK2 cells on transwell inserts
Protocol: Primary hPTECs were cultured in low (5 mM) glucose±TGFβ1 (10 ng/mL)±danegaptide (100 nM) for 48 h. Expression of E-cadherin (ECAD), N-cadherin (NCAD) and vimentin (panel A), and Claudin-2 and Zonula Occludens (ZO-1) and b-catenin (panel B) were assessed via western blotting. TGFβ1 reduced E-cadherin, Claudin-2 and ZO-1 expression and increased N-cadherin and vimentin expression (**P<0.01, ***P<0.001; mean±SEM, n=3). Effects were partially or completely reversed by danegaptide (100 nM; ▴P<0.05 and ▴▴▴P<0.001; mean±SEM, n=3). Representative blots for each protein are shown, with expression normalised by re-probing for α-tubulin as a loading control. In panel C, transepithelial electrical resistance (TER) assessed the consequence of altered adherens & tight-junction protein expression on epithelial integrity. HK2 cells were cultured in low (5 mM) glucose on transwell inserts and transepithelial resistance measured.
To determine if danegaptide can negate TGFβ1-mediated changes in adherens and tight junction proteins, hPTECs were incubated with TGFβ1 (10 ng/mL)±danegaptide (100 nM) for 48 h and expression of candidate proteins assessed by Western blotting. […] Bands were visualised using an OdysseyFC and semi-quantified using ImageStudio (v5.2, LI-COR). […]

Cx43 hemichannels = target: T1, Cx43 hemichannels (Homo sapiens, UniProt P17302); experiment: Carboxyfluorescein dye uptake assay in primary hPTECs; type: cell-based; conditions: 48 h
T1 construct: host or cells: HK2 human kidney proximal tubule epithelial cell line
T1 sequence (P17302 whole entry): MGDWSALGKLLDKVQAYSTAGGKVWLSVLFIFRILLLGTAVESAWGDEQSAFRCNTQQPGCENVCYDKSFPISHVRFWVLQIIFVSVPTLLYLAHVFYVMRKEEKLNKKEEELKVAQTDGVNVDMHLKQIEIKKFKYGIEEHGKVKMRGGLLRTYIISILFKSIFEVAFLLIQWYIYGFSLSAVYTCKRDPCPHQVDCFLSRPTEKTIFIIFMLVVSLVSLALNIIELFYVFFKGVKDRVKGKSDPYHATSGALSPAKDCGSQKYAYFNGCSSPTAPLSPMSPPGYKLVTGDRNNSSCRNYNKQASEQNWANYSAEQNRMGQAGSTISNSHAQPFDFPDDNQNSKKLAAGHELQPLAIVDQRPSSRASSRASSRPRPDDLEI
Protocol: In panel A, HK2 cells were cultured in low glucose (5 mM) with/without TGFβ1 (10 ng/ml)±danegaptide (50, 100 and 1000 nM) for 48 h and cell viability assessed. Results are presented as mean±SEM, n=3. […] Addition of danegaptide (50 or 100 nM) reduced dye uptake, returning fluorescence intensity to control levels. Intensity is expressed as percentage compared to low glucose control and is representative of 3 separate experiments. Data is presented as mean±SEM, n=3 with key significances indicated (**P<0.01, ***P<0.001); one-way ANOVA and Tukey's post-test).
HK2 and HPTEC cells were seeded onto fluorodishes (22 mm diameter) and cultured in low glucose DMEM/F12 (5 mmol/1) for 48 h. Following an overnight serum-starvation, cells were incubated with TGFβ1 (10 ng/ml)±danegaptide (100 nM) for 48 h. For subsequent steps, a balanced salt solution (BSS, pH7.0) was used, comprising of NaCl (137 mM), KCl (5.4 mM), MgSO4 (0.8 mM), Na2HPO4 (0.3 mM), KH2PO4 (0.4 mM), NaHCO3 (4.2 mM), HEPES (10 mM) and glucose (5 mM). […] ImageJ was used to quantify dye uptake, where a region of interest (ROI) was drawn around each cell (approx. 10-15 cells/dish) and mean pixel intensity measured. A background fluorescence value was subtracted from each ROI.

[1] = TGFβ1 10 ng/mL + danegaptide 100 nM

## NCC(=O)N1C[C@H](NC(=O)c2ccccc2)C[C@H]1C(=O)O [danegaptide, (2S,4R)-1-(2-aminoacetyl)-4-benzamidopyrrolidine2-carboxylic acid]
Primary hPTECs; TGF-β1 10 ng/mL + DG 100 nM
  Angiogenin in supernatant (% compared to control): 129 ± 14.7%
  Cystatin C in supernatant (% compared to control): 88 ± 6.8%
  DPPIV in supernatant (% compared to control): 179 ± 37.8%
  ENA 78 in supernatant (% compared to control): 119 ± 3.9%
  Endoglin in supernatant (% compared to control): 94 ± 5.8%
  FGF7 in supernatant (% compared to control): 102 ± 16.5%
  Flt 3 Ligand in supernatant (% compared to control): 103 ± 12.8%
  G-CSF in supernatant (% compared to control): 117 ± 12.0%
  GM-CSF in supernatant (% compared to control): 114 ± 3.8%
  HGF in supernatant (% compared to control): 88 ± 13.7%
  ICAM-1 in supernatant (% compared to control): 124 ± 16.6%
  IFNg in supernatant (% compared to control): 90 ± 12.7%
  IGFBP-2 in supernatant (% compared to control): 90 ± 6.4%
  IGFBP-3 in supernatant (% compared to control): 84.7 ± 14.3%
  IL1A in supernatant (% compared to control): 89 ± 21.5%
  IL3 in supernatant (% compared to control): 107 ± 38.0%
  IL8 in supernatant (% compared to control): 99 ± 26.4%
  IL12 p70 in supernatant (% compared to control): 63 ± 15.9%
  IL13 in supernatant (% compared to control): 62 ± 27.2%
  Kallikrein 3 in supernatant (% compared to control): 74 ± 20.6%
  LIF in supernatant (% compared to control): 134 ± 5.4%
  MCP-1 in supernatant (% compared to control): 101 ± 6.2%
  MMP-9 in supernatant (% compared to control): 80 ± 8.9%
  PDGF-AA/BB in supernatant (% compared to control): 99 ± 6.3%
  RAGE in supernatant (% compared to control): 99 ± 12.5%
  RANTES in supernatant (% compared to control): 101 ± 12.1%
  Serpin E1 in supernatant (% compared to control): 81 ± 42.8%
  TFF3 in supernatant (% compared to control): 98 ± 17.5%
  TNF-α in supernatant (% compared to control): 139 ± 6.1%
  Thrombospondin-1 in supernatant (% compared to control): 115 ± 11.9%
  VEGF in supernatant (% compared to control): 217 ± 49.3%
HK2 cells; [1]
  transepithelial resistance: 36±2.08 Ω·cm2
Cx43 hemichannels; [1]
  carboxyfluorescein dye uptake, of control: 145±19.7%

## TGFβ1: Recombinant hTGFβ1 (Sigma); pro-fibrotic cytokine used to stimulate the cells [reference compound]
Primary hPTECs; TGF-β1 10 ng/mL alone
  Angiogenin in supernatant (% compared to control): 184 ± 13.2%
  Cystatin C in supernatant (% compared to control): 169 ± 19.7%
  DPPIV in supernatant (% compared to control): 222 ± 24.3%
  ENA 78 in supernatant (% compared to control): 193 ± 17.7%
  Endoglin in supernatant (% compared to control): 101 ± 10.6%
  FGF7 in supernatant (% compared to control): 125 ± 11.3%
  Flt 3 Ligand in supernatant (% compared to control): 179 ± 6.5%
  G-CSF in supernatant (% compared to control): 171 ± 7.3%
  GM-CSF in supernatant (% compared to control): 213 ± 33.3%
  HGF in supernatant (% compared to control): 85 ± 15.8%
  ICAM-1 in supernatant (% compared to control): 191 ± 13.0%
  IFNg in supernatant (% compared to control): 123 ± 11.0%
  IGFBP-2 in supernatant (% compared to control): 259 ± 49.6%
  IGFBP-3 in supernatant (% compared to control): 147 ± 7.0%
  IL1A in supernatant (% compared to control): 109 ± 14.8%
  IL3 in supernatant (% compared to control): 127 ± 30.6%
  IL8 in supernatant (% compared to control): 138 ± 48.4%
  IL12 p70 in supernatant (% compared to control): 74 ± 11.5%
  IL13 in supernatant (% compared to control): 95 ± 16.4%
  Kallikrein 3 in supernatant (% compared to control): 75 ± 5.61%
  LIF in supernatant (% compared to control): 249 ± 32.1%
  MCP-1 in supernatant (% compared to control): 171 ± 14.3%
  MMP-9 in supernatant (% compared to control): 41 ± 8.8%
  PDGF-AA/BB in supernatant (% compared to control): 137 ± 9.7%
  RAGE in supernatant (% compared to control): 170 ± 16.3%
  RANTES in supernatant (% compared to control): 140 ± 8.6%
  Serpin E1 in supernatant (% compared to control): 91 ± 4.7%
  TFF3 in supernatant (% compared to control): 114 ± 22.2%
  TNF-α in supernatant (% compared to control): 176 ± 5.5%
  Thrombospondin-1 in supernatant (% compared to control): 120 ± 24.8%
  VEGF in supernatant (% compared to control): 209 ± 43.3%
HK2 cells; TGFβ1 10 ng/mL alone
  transepithelial resistance: 10±1.53 Ω·cm2
Cx43 hemichannels; TGFβ1 10 ng/mL alone
  carboxyfluorescein dye uptake, of control: 310.8±38.6%
